# Values quoted from earlier work as cited in US9795593B2, “Use of 3-(3-[1,2,4]-triazolo)-oxatriazolium-5-olate for treating sexual disorders” (LIMITED LIABILITY COMPANY “KONSORTSIUM-PIK”, priority 2014, dated 2017).
# Tests used:
# [1] = test system: model of L-NAME-induced NO deficiency; settings: cited from earlier work
# NO-synthase = settings: 7-day-long administration of L-NAME; cited from earlier work
# [2] = 7-day-long administration of L-NAME; cited from earlier work
# [3] = Nicorandil (4 mg/kg) preconditioning
compound,measurement,setting,value
COc1ccc(Cl)cc1C(=O)NCCc1ccc(S(=O)(=O)NC(=O)NC2CCCCC2)cc1 [Glibenclamide],effect on protective effects of preconditioning,"[1]; Glibenclamide 4 mg/kg, blockade of ATP-dependent potassium channels",neutralized protective effects
"COC(=O)[C@@H](N)CCCNC(=N)N[N+](=O)[O-].Cl [L-NAME, N-omega-nitro-L-arginine methyl ester hydrochloride]",mean diastolic BP,NO-synthase,146.0±4.2 mm Hg
same,mean systolic blood pressure,NO-synthase,191.3±7.1 mm Hg
same,increase of endothelial dysfunction ratio,[2],5 fold
O=C(NCCO[N+](=O)[O-])c1cccnc1 [Nicorandil],CRP,[1]; [3],0.6 ± 0.1 mg/dL
same,NO level,[1]; [3],6.2±0.25 mcmol/L
same,endothelial dysfunction ratio (EDR),[1]; [3],1.76±0.18 AU
same,myocardium contractility during resistance testing,[1]; [3],77.2±8.3%
